Like-named read-outs stand apart in the source and are kept apart here.
Columns and labels:
[1] = tested on: toxicity induced by APAP; conditions: for effect on liver enzymes serum levels: Example 2, Tables 3 and 4, 0.1-0.4 mg/mouse with APAP 4 mg; for beneficial effect on acetaminophen-induced liver toxicity: mice, administered together with, or following, large dosage of acetaminophen
Protocol: IB was tested for its effect on toxicity induced by APAP in comparison to NAC using the following procedure: Mice were allocated into four groups of six mice each, as described in Table 1 below. The mice received sub-lethal hepatotoxic doses of APAP, causing liver damage equivalent to consumption of approximately 10 gr APAP (20 caplets of 500 mg) per 70 kg man.
Food was taken on the afternoon (18:00) of Day 0. Mice were orally administered APAP, APAP+IB or APAP+NAC 15 h hours later (9:00 next morning, Day 1) by gavage administration. A total of 350 μl were administered, containing the different components in the desired concentrations in PBS. Food was returned 2 h after APAP administration (Day 1). For all groups, mice were weighted daily, and blood samples were taken 24 h hours after APAP administration (Day 2). Serum levels of the liver enzymes aspartate aminotransferase (AST) and alanine aminotransferase (ALT) were measured using a Reflovet® Plus clinical chemistry analyzer (Roche Diagnostics, GmbH, Mannheim, Germany). Serum samples were diluted before the measurements, as needed.
The following combinations were tested using the same procedure described in Example 1 above, and compared to 4 mg APAP+3 or 3.5 mg NAC: […]
This combination was tested for its effect on toxicity induced by APAP using the procedure described in Example 1 above. […]
Mice were treated according to the procedure describe in Example 1 above.

[2] = Body weight of fasted mice given APAP (weight ratio / difference between days); assay type: in vivo
Text: Table 9 presents the effect of each combination on body weight loss, as determined by the ratio of the mice body weight between Day 0 and Day 2.
Table 12 presents the effect of each combination on body weight loss, as determined by the ratio of the mice body weight between Day 0 and Day 2 and by the difference in the mice body weight between Day 1 (immediately after administration of APAP with the different combinations and before food was returned) and Day 2.
Table 18 presents the effect of each combination on body weight, as determined by the difference in the mice body weight between Day 1 (immediately after administration of APAP with the different combinations and before food was returned) and Day 2.
This combination was tested for its effect on toxicity induced by APAP using the procedure described in Example 1 above with several modifications, as described below. Mice were allocated into four groups of six mice each, as detailed in Table 19 below. Food was taken on the afternoon (18:00) of Day 0. Mice were orally administered APAP 15 hours later (9:00 next morning, Day 1) by gavage administration. NAC was administered PO with APAP. MSM+IB were administered 1.5 h later. Following another 1.5 h, PC was administered. Food was returned 3.5 h after APAP administration (Day 1). Weight was determined three times: on Day 0 before food was taken, after over-night fasting (Day 1, just before APAP administration) and before sacrifice (Day 2, 24 hours after APAP administration).

[3] = tested on: toxicity induced by APAP; assay: Liver biopsy histology (H&E) 24 h after APAP administration; assay type: in vivo, mice
Protocol: In addition, liver biopsies were performed. For histopathology, livers from individual mice were fixed in 10% formaldehyde solution and kept at room temperature until use. The tissue blocks were then embedded in paraffin, […] sections were cut and stained with hematoxylin and eosin (H&E) for morphological examination. […] Improved liver architecture with no evidence for cellular damage and necrosis can be seen in all treated groups.

[4] = tested on: ConA-activated splenocytes; assay: IFN-γ secretion by ConA-activated splenocytes from treated mice (ELISA); assay type: cell-based; conditions: FIG. 5; groups A, B, C, D of Table 24; 5 μg ConA, 20 h; p=NS
Protocol: After mice were sacrificed, spleens from five mice from each group were taken and splenocytes were isolated by the following procedure: Isolation of splenocytes: Spleens were stored in RPMI-1640 medium supplemented with FCS. Spleens were crushed through a 70-μm nylon cell strainer (Falcon) and centrifuged (1,250 rpm for 7 min.). Red blood cells were lysed in 1 ml of cold 155 mM ammonium chloride lysis buffer. Splenocytes were washed and resuspended in 1 ml of RPMI supplemented with FCS. The viability of cells as assessed by trypan blue exclusion exceeded 90%. Next, splenocytes (1×10^6 per mouse, per well, in duplicates) were moved into a 24 well plate containing RPMI-1640 supplemented with 10% FCS, 1% penicillin/streptomycin (P/S), 1% glutamine, 1% sodium pyruvate and 1% non-essential amino acid. […] After incubation cells from all wells were moved to Eppendorff tubes and centrifuged for 5 minutes. Then supernatants were collected and freezed in −80° C. until assayed for IFN-γ by ELISA. Cytokine determination: Levels of IFN-γ were determined by “sandwich” ELISA using commercial kit according to the manufacturer's instructions (Quantikine, R&D Systems, Minneapolis, Minn., USA).

[5] = Table 2, serum 24 h after APAP, PO, APAP 4 mg/mouse alone or + NAC 3 mg/mouse
[6] = Table 3, 24 h, PO, APAP 4 mg/mouse alone or + NAC 3 mg/mouse
[7] = Table 4, 24 h, PO, APAP 4 mg/mouse alone or + NAC 3.5 mg/mouse
[8] = Table 6, 24 h, PO, APAP 4 mg/mouse alone or + NAC 3.5 mg/mouse
[9] = Table 8, 24 h, PO, APAP 4 mg/mouse alone or + NAC 3 mg/mouse
[10] = Table 11, 24 h, PO, per mouse APAP 4 mg, NAC 3.5 mg, PC 0.9 mg after 3 h
[11] = Table 14, 24 h, PO, APAP 4 mg/mouse alone or + NAC 3.5 mg, PC 0.9 mg after 3 h
[12] = Table 14, 24 h, PO, APAP 4.6 mg/mouse alone or + NAC 3.5 mg, PC 0.9 mg after 3 h
[13] = Table 17, 24 h, PO, per mouse APAP 4 mg, NAC 3.5 mg, MSM 1.5 mg
[14] = Table 20, 24 h, PO, APAP 7 mg/mouse alone or + NAC 3.5 mg/mouse
[15] = Table 23, 24 h, PO, per mouse APAP 4 mg, MSM 0.15 mg, IB 0.1 mg
[16] = Table 27, 24 h, PO, per mouse APAP 4.6 mg, NAC/Cys/Met 3.5 mg, PC 0.9 mg, MSM 0.2 mg, IB 0.1 mg
[17] = Table 30, APAP 4.6 mg with NAC/Cys/Met 3.5 mg, MSM 0.1 mg + IB 0.1 mg after 1.5 h, PC 0.9 mg after 3 h
[18] = Table 33, 24 h, PO, per mouse APAP 4.6 mg, NAC/Cys/Met 3.5 mg
[19] = Table 12, per mouse APAP 4 mg, NAC 3.5 mg, PC 0.9 mg after 3 h
[20] = Table 15, APAP 4 mg/mouse alone or + NAC 3.5 mg, PC 0.9 mg after 3 h
[21] = Table 15, APAP 4.6 mg/mouse alone or + NAC 3.5 mg, PC 0.9 mg after 3 h
[22] = Table 21, APAP 7 mg/mouse alone or + NAC 3.5 mg/mouse

## CC(=O)Nc1ccc(O)cc1 [APAP, N-(4-hydroxyphenyl)acetamide]
[1]; [5]
  ALT (average ± std. dev.): 14,360 ± 4,370.52 IU/L
  AST (average ± std. dev.): 18,920.00 ± 12,192.04 IU/L
[1]; [6]
  ALT (average ± std. dev.): 5,617.50 ± 1,832.77 IU/L
  AST (average ± std. dev.): 3,672.67 ± 1,965.99 IU/L
[1]; [7]
  ALT (average ± std. dev.): 8,880.00 ± 2,624.31 IU/L
  AST (average ± std. dev.): 5,848.67 ± 1,993.43 IU/L
[1]; [8]
  ALT (average ± std. dev.): 7,790.0 ± 2,175.9 IU/L
  AST (average ± std. dev.): 4,883.3 ± 1,549.4 IU/L
[1]; [9]
  ALT (average ± std. dev.): 6,421.67 ± 2,914.38 IU/L
  AST (average ± std. dev.): 3,686.67 ± 2,168.08 IU/L
[1]; [10]
  ALT (average ± std. dev.): 7,530.00 ± 2,339.06 IU/L
  AST (average ± std. dev.): 4,988.67 ± 878.44 IU/L
[1]; [11]
  ALT (average ± std. dev.): 5,739.25 ± 2,536.44 IU/L
  AST (average ± std. dev.): 4,374.00 ± 2,384.21 IU/L
[1]; [12]
  ALT (average ± std. dev.): 7,772.50 ± 1,771.00 IU/L
  AST (average ± std. dev.): 6,310.00 ± 2,127.07 IU/L
[1]; [13]
  ALT (average ± std. dev.): 9,040 ± 3,472.64 IU/L
  AST (average ± std. dev.): 6,560 ± 2,618.34 IU/L
[1]; [14]
  ALT (average ± std. dev.): 20,160.00 ± 9,678.28 IU/L
  AST (average ± std. dev.): 20,001.00 ± 11,998.16 IU/L
[1]; [15]
  ALT (average ± std. dev.): 8,918.00 ± 2,955.74 IU/L
  AST (average ± std. dev.): 6,586.67 ± 4,204.58 IU/L
[1]; Table 25, 24 h, PO, per mouse APAP 4 mg, MSM 0.25 mg, IB 0.1 mg
  AST (average ± std. dev.): 4,303.33 ± 2,163.30 IU/L
[1]; [16]
  ALT (average ± std. dev.): 10285.00 ± 4435.22 IU/L
  AST (average ± std. dev.): 7796.00 ± 5000.46 IU/L
[1]; [17]
  ALT (average ± std. dev.): 11210.83 ± 7589.19 IU/L
  AST (average ± std. dev.): 10577.33 ± 11375.63 IU/L
[1]; [18]
  ALT (average ± std. dev.): 9002.50 ± 4211.03 IU/L
  AST (average ± std. dev.): 5684.00 ± 2307.64 IU/L
[2]; Example 4, Table 9, APAP 4 mg/mouse only
  decrease in body weight during the two days of the experiment: 6%
[2]; Example 8, Table 28, APAP 4.6 mg only
  decrease in body weight during the two days of the experiment: more than 8%
[2]; Example 8, Table 31, APAP 4.6 mg only
  decrease in body weight during the two days of the experiment: more than 8%
[2]; Example 8, Table 34, APAP 4.6 mg only
  decrease in body weight during the two days of the experiment: more than 6%
[2]; Table 9, APAP 4 mg/mouse alone or + NAC 3 mg/mouse, PO
  Weight ratio Day 0-Day 2: 94.17%
[2]; [19]
  Weight difference Day 1 − Day 2: 1.17
  Weight ratio Day 1-Day 2: 105%
[2]; [20]
  Weight difference Day 1 − Day 2: 2.07
  Weight ratio Day 1-Day 2: 108%
[2]; [21]
  Weight difference Day 1 − Day 2: 1.02
  Weight ratio Day 1-Day 2: 104%
[2]; Table 18, per mouse APAP 4 mg, NAC 3.5 mg, MSM 1.5 mg
  Weight difference Day 1 − Day 2: 1.05
[2]; [22]
  Weight difference Day 1 − Day 2: −0.45
  Weight ratio Day 1-Day 2: 98%
[2]; Table 28, per mouse APAP 4.6 mg, NAC/Cys/Met 3.5 mg, PC 0.9 mg, MSM 0.2 mg, IB 0.1 mg
  Weight ratio Day 0-Day 2: 91.59%
[2]; Table 31, APAP 4.6 mg with NAC/Cys/Met 3.5 mg, MSM 0.1 mg + IB 0.1 mg after 1.5 h, PC 0.9 mg after 3 h
  Weight ratio Day 0-Day 2: 91.23%
[2]; Table 34, per mouse APAP 4.6 mg, NAC/Cys/Met 3.5 mg
  Weight ratio Day 0-Day 2: 93.26%
[3]; FIG. 1, groups of Table 5, 24 h after APAP 4 mg/mouse
  histological liver sections: diffuse damage to hepatocytes
[3]; FIG. 2, groups of Table 7, 24 h after APAP 4 mg/mouse
  histological liver sections: diffuse damage to hepatocytes
[3]; FIG. 3, groups of Table 10, 24 h after APAP 4 mg/mouse
  histological liver sections: diffuse damage to hepatocytes
[3]; FIG. 4, groups of Table 16, 24 h after APAP 4 mg/mouse
  histological liver sections: diffuse damage to hepatocytes
[3]; FIG. 6, groups of Table 26, 24 h after APAP 4.6 mg/mouse
  histological liver sections: diffuse damage to hepatocytes
[3]; FIG. 7, groups of Table 29, 24 h after APAP 4.6 mg/mouse
  histological liver sections: diffuse damage to hepatocytes
[3]; FIG. 8, groups of Table 32, 24 h after APAP 4.6 mg/mouse
  histological liver sections: diffuse damage to hepatocytes
[4]
  IFN-γ levels secreted by ConA-activated splenocytes: 259 pg/mL

## COc1cc([C@H]2Oc3ccc([C@H]4Oc5cc(O)cc(O)c5C(=O)[C@@H]4O)cc3O[C@@H]2CO)ccc1O [IA, Isosilybin A]
[1]
  effect on liver enzymes serum levels: ineffective in reducing liver enzymes serum levels
  beneficial effect on acetaminophen-induced liver toxicity: did not show a beneficial effect

## COc1cc([C@@H]2Oc3cc([C@H]4Oc5cc(O)cc(O)c5C(=O)[C@@H]4O)ccc3O[C@H]2CO)ccc1O [silybin B]
[1]
  effect on liver enzymes serum levels: ineffective in reducing liver enzymes serum levels
  beneficial effect on acetaminophen-induced liver toxicity: did not show a beneficial effect

— patent US9474763B2, “Compositions and methods for amelioration and prevention of drug-induced toxicity” (priority 2012, dated 2016)
